The values below are quoted from earlier work in patent US8881894B2, “Multiple-compartment applicator” (Sonovia Holdings LLC, priority 2008, dated 2014).

The conditions of the data set: in water.

In the case of `O=C1O[C@H]([C@@H](O)CO)C(O)=C1O` [L-Ascorbic acid], the “pK of acid-ionizable hydrogen” value is recorded as 4.2.
